Experimental findings from ChEMBL document CHEMBL3507680, “University of Dundee, Gates Library screen for HepG2 cell viability” are described below.

Structures are written as SMILES.

This data set can be described thus: Human HepG2 cell viability assay in 384 well format. Further details: dose 125 nL, time 70.5 hour; concentration not given beside the values. The conditions noted are these: HepG2 cells, read-out: Inhibition. It is filed as toxicity, cell-based.
Take `COc1cccc(CCC(=O)N2CCCC(c3nncn3C)C2)c1` (stereo not drawn): the cytotoxicity at 70.5 h was -7.27%.
Under `CC(Cn1cccn1)NC(=O)N1CCN(Cc2ccsc2)CC1` (stereo not drawn) stands -1.89%.
Turning to `O=C(Cc1c[nH]c2ccccc12)N1CCC(Nc2ccccc2)CC1`, the cytotoxicity at 70.5 h was -3.37%.
Under `CCCc1nc(C)c(C(=O)NCCNc2ncccc2C#N)s1` stands 0.537%.
With `Cc1nc(C(C)(C)C)sc1C(=O)NCCNc1ncccc1C#N`, the cytotoxicity at 70.5 h is -7.48%.
Take `Cc1ncc(C(=O)NCCNc2ncccc2C#N)s1`: the cytotoxicity at 70.5 h was -0.109%.
On to `Cc1nc(C)c(C(=O)NCCNc2ncccc2C(F)(F)F)s1`, for which the cytotoxicity at 70.5 h was -7.63%.
Under `COc1ccc(F)cc1C(=O)N1CCCC(CNS(C)(=O)=O)C1` (stereo not drawn) stands 1.51%; under `CC(C)Oc1ncccc1CNC(=O)c1ccccn1`, -2.17%; under `Cc1occc1CNC(=O)NCCN(C)C1CCCC1`, -0.13%.
As to `Cc1noc(CN2CCCC2c2noc(C3CC3)n2)n1` (stereo not drawn), the cytotoxicity at 70.5 h was determined as 20.7%.
As to `CCCc1nc(CN2CCc3c(ncn3C3CC3)C2)cs1`, the cytotoxicity at 70.5 h is -5.23%.
On to `CCc1n[nH]c(C2CN(C(=O)c3cnc(C)nc3CC)CCO2)n1` (stereo not drawn), for which the cytotoxicity at 70.5 h is -8.34%.
Under `Cc1nc(C2CCCN2C(=O)Cn2cncn2)no1` (stereo not drawn) stands -9.87%; under `CC(NC(=O)COCC(F)(F)F)c1nnc2n1CCCCC2` (stereo not drawn), -16.3%.
On to `O=C(NCCn1ccnc1)N1CCN(Cc2ccco2)CC1`, for which the cytotoxicity at 70.5 h was -3.81%.
As to `c1ccc(-n2cc(CN3CCCC3Cn3cccn3)nn2)cc1` (stereo not drawn), the cytotoxicity at 70.5 h was -10.7%.
Under `CCc1nc(CN2CCc3c(ncn3C3CC3)C2)cs1` stands -17%; under `CCOc1ccc(C(=O)N2CCCC(n3ccnc3C)C2)cc1OC` (stereo not drawn), -7.46%.
As to `CCc1n[nH]c(C2CN(C(=O)c3ncoc3CC)CCO2)n1` (stereo not drawn), the cytotoxicity at 70.5 h is -13.4%.
Consider `CCOc1ccc(NC(=O)NCc2cccnc2OCC)cc1`, for which the cytotoxicity at 70.5 h is -9.72%.
Turning to `Cn1ccc(C(=O)NCc2ccc(CN3CCCCC3)cc2)cc1=O`, the cytotoxicity at 70.5 h was -12%.
Consider `COc1ncccc1CNC(=O)Nc1ccc(N(C)C)nc1`, for which the cytotoxicity at 70.5 h was -12.5%.
As to `Cc1noc(C(C)C)c1C(=O)NCCCN1CCCCCC1=O`, the cytotoxicity at 70.5 h is -7.03%.
Under `CN1CCCN(C(=O)NCCOc2ccc3c(c2)OCO3)CC1` stands -2.86%; under `NC(=O)C1CCN(C(=O)NCCOc2ccc3c(c2)OCO3)C1` (stereo not drawn), -8.31%; under `CC(=O)N1CCN(CC(C)(O)c2cccc(C(F)(F)F)c2)CC1` (stereo not drawn), -8.81%.
Turning to `Cc1ccc(OCc2nc(CNCC3CN(C)CCO3)cs2)cc1` (stereo not drawn), the cytotoxicity at 70.5 h amounted to 29.7%.
As for `Cc1nc(CN(C)C2CCN(CCc3cccs3)C2)no1` (stereo not drawn), the figure is 23.7%; as for `Cc1cccc(OCCCN2CCC(N(C)Cc3noc(C)n3)C2)c1` (stereo not drawn), 25.5%.
Under `Cc1nc(CN(C)C2CCN(CCCOc3ccc(F)cc3)C2)no1` (stereo not drawn) stands 22.2%; under `Cc1nc(CN(C)C2CCN(CCCOc3ccccc3C)C2)no1` (stereo not drawn), 0.379%; under `CCc1nc(CN(C)C2CCN(CCc3cccs3)C2)no1` (stereo not drawn), -6.05%.
Consider `O=C(NCC(=O)N1CCC2(CC1)OCCO2)c1ccoc1`, for which the cytotoxicity at 70.5 h is -7.96%.
For `CN1CCC/C1=N\S(=O)(=O)c1ccc(NC(=O)c2ccc(Cl)cc2)cc1`, the cytotoxicity at 70.5 h came out at 1.42%.
Consider `CN1CCC/C1=N\S(=O)(=O)c1ccc(NC(=O)Cc2cccs2)cc1`, for which the cytotoxicity at 70.5 h is -2.68%.
As for `CC(C)c1cc(NC(=O)CN2CCC(C(N)=O)CC2)on1`, the cytotoxicity at 70.5 h is -6.12%.
As for `CC(C1CC1)N(C)C(=O)c1ccc(-n2ncc(C#N)c2N)cc1` (stereo not drawn), the figure is -6.01%; as for `Cc1cccc(OCC(O)CN2CCC(Cn3cccn3)CC2)c1` (stereo not drawn), 22.2%.
Regarding `N#Cc1cnn(-c2ccc(C(=O)N(C3CCCCC3)C3CC3)cc2)c1N`, the cytotoxicity at 70.5 h was -0.0932%.
Turning to `COCCN(C)C(C)c1cccc(S(N)(=O)=O)c1` (stereo not drawn), the cytotoxicity at 70.5 h amounted to 0.815%.
Consider `Cc1ccc(OCCN(C)C(C)c2cccc(S(N)(=O)=O)c2)cc1` (stereo not drawn), for which the cytotoxicity at 70.5 h amounted to 1.1%.
`O=C(NCC(=O)N1CCCC(c2ccccc2)CC1)c1ccoc1` (stereo not drawn): the cytotoxicity at 70.5 h is 1.06%.
`CCN(Cc1cccc2c1OCO2)C(=O)NCc1ccccn1`: the cytotoxicity at 70.5 h is 13.5%.
With `COc1ccc(Cl)cc1CC(=O)N1CCN(CC(C)O)CC1` (stereo not drawn), the cytotoxicity at 70.5 h was -5.64%.
Consider `CCc1nc(CN(C)C2CCN(CCOc3ccccc3)C2)no1` (stereo not drawn), for which the cytotoxicity at 70.5 h is 0.0512%.
Consider `CNC(=O)C1CCN(CC(=O)Nc2cc(C(C)C)no2)CC1`, for which the cytotoxicity at 70.5 h is -1.42%.
Take `COc1c(CNC2CCc3cc(Cl)ccc32)c(C)nn1C` (stereo not drawn): the cytotoxicity at 70.5 h is -3.82%.
Under `COc1c(CNC2CCc3cc(C)ccc32)c(C)nn1C` (stereo not drawn) stands -1.11%.
`CC(C)(C)c1cc(NC(=O)CN2CCCC2Cn2cccn2)on1` (stereo not drawn): the cytotoxicity at 70.5 h was determined as 1.91%.
For the molecule `O=C(c1ccc2c(c1)COC2)N1CCCN(Cc2cscn2)CC1`, the cytotoxicity at 70.5 h is 1.09%.
As to `CN(Cc1noc(C2CC2)n1)C1CCN(CCc2cccs2)C1` (stereo not drawn), the cytotoxicity at 70.5 h was -2.4%.
As for `CCN(Cc1cccc2c1OCO2)C(=O)NCCOC`, the figure is 3.33%.
Regarding `Cc1cc(CN2CCCC(Cn3cncn3)C2)on1` (stereo not drawn), the cytotoxicity at 70.5 h was -3.16%.
Take `O=C(c1ccc2cc[nH]c2c1)N1CCCN(Cc2cscn2)CC1`: the cytotoxicity at 70.5 h is -2.03%.
In the case of `CCC(O)CN1CCN(C(=O)c2sccc2C(C)C)CC1` (stereo not drawn), the cytotoxicity at 70.5 h is -7.94%.
As for `O=S(=O)(CCN1CCCCC1Cn1cncn1)c1ccccc1` (stereo not drawn), the figure is 27.2%; as for `COCCc1noc(CN2CC(n3nc(C)cc3C)C2)n1`, 4.95%; as for `CCCc1noc(CN2CCC(N(C)Cc3nnc(C4CC4)o3)C2)n1` (stereo not drawn), 4.17%.
`O=S(=O)(CCCNC1CCc2ncnn2C1)c1ccccc1` (stereo not drawn): the cytotoxicity at 70.5 h is 23.5%.
Turning to `CCCc1nc(C)c(C(=O)NCCN2CCCCC2)s1`, the cytotoxicity at 70.5 h is -1.37%.
For `CCN1CCN(CCNC(=O)c2sc(C)nc2C)CC1`, the cytotoxicity at 70.5 h is -5.81%.
Consider `COCCc1noc(CN2CCOC(Cn3cc(C)cn3)C2)n1` (stereo not drawn), for which the cytotoxicity at 70.5 h came to 0.177%.
On to `CCc1nc(C)c(C(=O)NCCN2CCCC2)s1`, for which the cytotoxicity at 70.5 h is -5.7%.
Take `Cc1ccccc1CN(C)C(=O)CN1CCOC(Cn2cccn2)C1` (stereo not drawn): the cytotoxicity at 70.5 h came to 3.04%.
With `Cc1cc(C)n(CC2CN(Cc3nc(C)c(C)o3)CCO2)n1` (stereo not drawn), the cytotoxicity at 70.5 h was -5.6%.
Consider `Cc1ccccc1CCNC(=O)C1CC(=O)N(CC(F)(F)F)C1` (stereo not drawn), for which the cytotoxicity at 70.5 h is 26.6%.
In the case of `CNS(=O)(=O)c1cccc(CNc2nccc(C(F)(F)F)n2)c1`, the cytotoxicity at 70.5 h came out at 53.4%.
As for `Cc1csc(N2CCN(C(=O)CCC(=O)c3ccc(C)s3)CC2)n1`, the figure is 7.78%.
Under `O=C(NCCNc1ncccn1)C1CCN(CC(F)(F)F)CC1` stands -3.78%; under `Cc1nc(-c2ccccc2)n(CC(=O)N(C(C)C)C(C)C)n1`, 2.39%; under `CC(C)OCCCNC(=O)c1ccc(-c2ccco2)[nH]c1=O`, -2.82%.
For the molecule `O=C(NCCNc1ncccn1)C1CC(=O)N(CC(F)(F)F)C1` (stereo not drawn), the cytotoxicity at 70.5 h is -14.3%.
`Cc1ccccc1CC(=O)N1CCN(C2CCOC2=O)CC1` (stereo not drawn): the cytotoxicity at 70.5 h is -5.25%.
Take `CC(C)COCC(NC(=O)c1ccccn1)c1ccco1` (stereo not drawn): the cytotoxicity at 70.5 h was -10.5%.
For `CCC(CC)NC(=O)Cn1nc(C)nc1-c1ccccc1`, the cytotoxicity at 70.5 h is -6.22%.
With `CC(C)COCC(NC(=O)c1cccnc1)c1ccco1` (stereo not drawn), the cytotoxicity at 70.5 h was -9.01%.
Under `CC(C)COCC(NC(=O)c1cc[nH]n1)c1ccco1` (stereo not drawn) stands 4.11%.
In the case of `Cc1ccc(CNC(=O)NCCCn2nc3ccccn3c2=O)s1`, the cytotoxicity at 70.5 h was found to be 30.2%.
Take `Cc1cc(C)n(CC2CCCN2CC(=O)N(C)Cc2cnn(C)c2)n1` (stereo not drawn): the cytotoxicity at 70.5 h was -9.95%.
Take `Cc1nccn1C1CCCN(C(=O)c2ccc3c(c2)NC(=O)CO3)C1` (stereo not drawn): the cytotoxicity at 70.5 h was -5.24%.
With `Cc1cc(C(=O)N2CCCC2Cn2nc(C)cc2C)on1` (stereo not drawn), the cytotoxicity at 70.5 h turned out to be 1.85%.
As to `CC(=O)Nc1ccc(S(=O)(=O)NC(=O)CCC2CCCO2)cc1` (stereo not drawn), the cytotoxicity at 70.5 h was 26.4%.
As for `O=C(COc1ccc2c(c1)CCC2)N1CCOCC1c1ncon1` (stereo not drawn), the figure is -10.4%; as for `CNS(=O)(=O)c1cccc(CNc2ccc(C(F)(F)F)nn2)c1`, -3.47%; as for `Cc1cccc(NC(=O)NCCCn2nc3ccccn3c2=O)c1C`, -8.44%.
As for `CC(O)CN1CCC(CNCc2cccc(OC(C)C)c2)CC1` (stereo not drawn), the cytotoxicity at 70.5 h was 47%.
In the case of `CC(O)CN1CCC(CNCc2cccc(Br)c2)CC1` (stereo not drawn), the cytotoxicity at 70.5 h turned out to be 24.8%.
As to `O=C(c1cccc(OC2CCCC2)c1)N1CCCC(n2cncn2)C1` (stereo not drawn), the cytotoxicity at 70.5 h is 5.3%.
In the case of `CCOc1ncccc1C(=O)N1CCCCC1c1nccs1` (stereo not drawn), the cytotoxicity at 70.5 h is 2.5%.
`CCc1nccn1C1CCCN(C(=O)c2cnn3ccc(C)nc23)C1` (stereo not drawn): the cytotoxicity at 70.5 h was -9.27%.
For `Cc1cc(C)n(CC2CCCN2Cc2c(C)noc2C)n1` (stereo not drawn), the cytotoxicity at 70.5 h came out at 34.3%.
As to `C1CC(c2noc(C3CC3)n2)CN(Cc2noc(C3CC3)n2)C1` (stereo not drawn), the cytotoxicity at 70.5 h is -7.62%.
Regarding `CCc1noc(CN2CCCC2c2noc(C3CC3)n2)n1` (stereo not drawn), the cytotoxicity at 70.5 h came out at 1.8%.
Take `CCOCC(O)CN1CCN(C(=O)CC(C)C)CC1` (stereo not drawn): the cytotoxicity at 70.5 h was -7.21%.
On to `CN(C)C(=O)c1ccc(CNC(=O)NCCN(C)C2CCCC2)cc1`, for which the cytotoxicity at 70.5 h is -13%.
With `CN(CCNC(=O)Nc1ccncc1)C1CCCCC1`, the cytotoxicity at 70.5 h worked out at 30.8%.
Regarding `Cc1cc(C)n(CC2CN(Cc3nc(-c4ccoc4)no3)CCO2)n1` (stereo not drawn), the cytotoxicity at 70.5 h was -15.7%.
For the molecule `Cc1nc(C)n(C2CCCN(C(=O)c3csc(C(C)C)n3)C2)n1` (stereo not drawn), the cytotoxicity at 70.5 h worked out at 23.9%.
Turning to `CCc1cccc(OCC(=O)N2CCCC(n3cncn3)C2)c1` (stereo not drawn), the cytotoxicity at 70.5 h was -9.33%.
Under `CC(Cn1cccn1)NCc1csc(-c2cccs2)n1` (stereo not drawn) stands -26%.
As for `Cc1ccc(-c2nc(CN3CCc4nn(C)c(=O)cc4C3)co2)cc1`, the cytotoxicity at 70.5 h is -17%.
On to `Cc1nn(C)c(N(C)C)c1CNC1CCc2cc(F)ccc21` (stereo not drawn), for which the cytotoxicity at 70.5 h was -4.67%.
